The source of these data is US11254663B2 (BRISTOL-MYERS SQUIBB COMPANY, priority 2019, dated 2022).

For this test, the target named is FXR (Homo sapiens (Human), UniProt Q96RI1). Briefly: transient human FXR/Gal4-luciferase reporter assay. The format is cell-based. The method in brief: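 Compound exposure ran overnight at 37 °C and activity was measured as luminescence with Steady-Glo reagent. The cells were a HEK293 line stably expressing firefly luciferase under five Gal4 response elements. They were transiently transfected, one night beforehand, with a plasmid encoding Gal4 DNA-binding domain fused to the human FXR ligand-binding domain.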
Chain of FXR (Q96RI1 262-486): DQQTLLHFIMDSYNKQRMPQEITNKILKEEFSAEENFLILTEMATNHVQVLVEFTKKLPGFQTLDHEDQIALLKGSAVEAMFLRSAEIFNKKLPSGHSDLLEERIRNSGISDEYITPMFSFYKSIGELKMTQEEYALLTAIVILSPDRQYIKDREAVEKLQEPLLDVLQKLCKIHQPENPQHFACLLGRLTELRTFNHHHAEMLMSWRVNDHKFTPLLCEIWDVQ

The mark [1] stands for this setting: Gal4-hFXR fusion construct, HEK293 reporter cells, response relative to 8 μM GW-4064.

Where two headings read alike, the source gives them in different places.

Molecule `CC(C)c1nc(C23CCC(CN(C(=O)C45CC(F)(C4)C5)c4cccc(-c5ccc(OC(F)F)cc5)c4)(CC2)CC3)no1` [Example 436, N-(4′-(difluoromethoxy)-[1,1′-biphenyl]-3-yl)-3-fluoro-N-((4-(5-isopropyl-1,2,4-oxadiazol-3-yl)bicyclo[2.2.2]octan-1-yl)methyl)bicyclo[1.1.1]pentane-1-carboxamide] returned a concentration for a half-maximal effect (EC50) under setting [1] of 0.046 µM. On to `CCOc1ccc(-c2cncc(N(CC34CCC(c5noc(C(C)(C)C)n5)(CC3)CC4)C(=O)C34CC(F)(C3)C4)c2)cc1` [Example 482, N-((4-(5-(tert-butyl)-1,2,4-oxadiazol-3-yl)bicyclo[2.2.2]octan-1-yl)methyl)-N-(5-(4-ethoxyphenyl)pyridin-3-yl)-3-fluorobicyclo[1.1.1]pentane-1-carboxamide], for which it took 0.322 µM to reach a half-maximal effect (EC50). In the case of `CCOc1cnc(-c2cccc(N(CC34CCC(c5nc(C(C)C)no5)(CC3)CC4)C(=O)C34CC(F)(C3)C4)c2)nc1` [Example 395, N-(3-(5-ethoxypyrimidin-2-yl)phenyl)-3-fluoro-N-((4-(3-isopropyl-1,2,4-oxadiazol-5-yl)bicyclo[2.2.2]octan-1-yl)methyl)bicyclo[1.1.1]pentane-1-carboxamide], the 50% effective concentration (EC50) under setting [1] was determined as 0.156 µM. Molecule `Cc1nc2ccc(-c3cccc(N(CC45CCC(c6nnc(C7CC7)o6)(CC4)CC5)C(=O)C4CCC(F)(F)C4)c3)cc2s1` (centres unmarked) [Example 563, N-((4-(5-cyclopropyl-1,3,4-oxadiazol-2-yl)bicyclo[2.2.2]octan-1-yl)methyl)-3,3-difluoro-N-(3-(2-methylbenzo[d]thiazol-6-yl)phenyl)cyclopentane-1-carboxamide] came in with an EC50 of 0.154 µM. On to `CC(C)(Oc1ccc(-c2cccc(N(CC34CCC(c5noc(C(C)(C)F)n5)(CC3)CC4)C(=O)[C@H]3C[C@](O)(C(F)(F)F)C3)c2)cc1)C(N)=O` [Example 654, (cis)-N-(4′-((1-amino-2-methyl-1-oxopropan-2-yl)oxy)-[1,1′-biphenyl]-3-yl)-N-((4-(5-(2-fluoropropan-2-yl)-1,2,4-oxadiazol-3-yl)bicyclo[2.2.2]octan-1-yl)methyl)-3-hydroxy-3-(trifluoromethyl)cyclobutane-1-carboxamide], for which the concentration for a half-maximal effect (EC50) under setting [1] was found to be 0.169 µM.

Consider `COc1cc(-c2cccc(N(CC34CCC(c5nnc(C)s5)(CC3)CC4)C(=O)C3CC(F)(F)C3)c2)ccn1` [Example 234, 3,3-difluoro-N-(3-(2-methoxypyridin-4-yl)phenyl)-N-((4-(5-methyl-1,3,4-thiadiazol-2-yl)bicyclo[2.2.2]octan-1-yl)methyl)cyclobutane-1-carboxamide], for which a half-maximal response under setting [1] (EC50) required 1.76 µM. As to `O=C(N(CC12CCC(c3nc(C4CC4)no3)(CC1)CC2)c1cccc(-c2ncc(OC(F)F)cn2)c1)C12CC(F)(C1)C2` [Example 335, N-((4-(3-cyclopropyl-1,2,4-oxadiazol-5-yl)bicyclo[2.2.2]octan-1-yl)methyl)-N-(3-(5-(difluoromethoxy)pyrimidin-2-yl)phenyl)-3-fluorobicyclo[1.1.1]pentane-1-carboxamide], under setting [1], a half-maximal effect (EC50) was put at 0.026 µM.

For `COc1ncc(-c2cccc(N(CC34CCC(c5nnc(C6CC6)o5)(CC3)CC4)C(=O)C34CC(F)(C3)C4)c2)cn1` [Example 341, N-((4-(5-cyclopropyl-1,3,4-oxadiazol-2-yl)bicyclo[2.2.2]octan-1-yl)methyl)-3-fluoro-N-(3-(2-methoxypyrimidin-5-yl)phenyl)bicyclo[1.1.1]pentane-1-carboxamide], the EC50 under setting [1] is 0.287 µM.

For `Cc1nc2ccc(-c3cccc(N(CC45CCC(c6nnc(C7CC7)o6)(CC4)CC5)C(=O)C4CC(C(F)F)C4)c3)cc2s1` (centres unmarked) [Example 562, N-((4-(5-cyclopropyl-1,3,4-oxadiazol-2-yl)bicyclo[2.2.2]octan-1-yl)methyl)-3-(difluoromethyl)-N-(3-(2-methylbenzo[d]thiazol-6-yl)phenyl)cyclobutane-1-carboxamide], a half-maximal response (EC50) required 0.318 µM. With `CC(C)NC(=O)NC12CCC(CN(C(=O)C3CC(O)(C(F)(F)F)C3)c3cccc(-c4ccc(OC(C)C)cc4)c3)(CC1)CC2` (stereo not drawn) [Example 604, (cis)-3-hydroxy-N-(4′-isopropoxy-[1,1′-biphenyl]-3-yl)-N-((4-(3-isopropylureido)bicyclo[2.2.2]octan-1-yl)methyl)-3-(trifluoromethyl)cyclobutane-1-carboxamide], the half-maximal effective concentration (EC50) under setting [1] is 0.968 µM. Same read-out and setting: with `O=C(N(CC12CCC(c3nc(C4CC4)no3)(CC1)CC2)c1cccc(-c2ccc(OC(F)F)cc2)c1)C12CC(F)(C1)C2` [Example 308, N-((4-(3-cyclopropyl-1,2,4-oxadiazol-5-yl)bicyclo[2.2.2]octan-1-yl)methyl)-N-(4′-(difluoromethoxy)-[1,1′-biphenyl]-3-yl)-3-fluorobicyclo[1.1.1]pentane-1-carboxamide] the figure was 0.015 µM; with `CC(C)c1cc(C23CCC(CN(C(=O)OC(C)(C)C(F)(F)F)c4cc(-c5ccc(C(C)(C)O)cc5)ccn4)(CC2)CC3)n(C)n1` [Example 661, 1,1,1-trifluoro-2-methylpropan-2-yl (4-(4-(2-hydroxypropan-2-yl)phenyl)pyridin-2-yl)((4-(3-isopropyl-1-methyl-1H-pyrazol-5-yl)bicyclo[2.2.2]octan-1-yl)methyl)carbamate], 0.053 µM; with `CN1CCN(c2cccc(N(CC34CCC(c5nc(C6CC6)no5)(CC3)CC4)C(=O)C34CC(F)(C3)C4)c2)CC1` [Example 416, N-((4-(3-cyclopropyl-1,2,4-oxadiazol-5-yl)bicyclo[2.2.2]octan-1-yl)methyl)-3-fluoro-N-(3-(4-methylpiperazin-1-yl)phenyl)bicyclo[1.1.1]pentane-1-carboxamide], 1.06 µM. The molecule `CC(F)(F)c1nc(C23CCC(CN(C(=O)C4CC(O)(C(F)(F)F)C4)c4cccc(-c5ccc(C(O)C(F)F)cc5)c4)(CC2)CC3)no1` (single isomer, unassigned) [Example 628 (first eluting isomer)] yielded an EC50 under setting [1] of 0.092 µM.

`O=C(N(CC12CCC(c3nc(C4CC4)no3)(CC1)CC2)c1cccc(-c2ccc3[nH]c(=O)oc3c2)c1)C12CC(F)(C1)C2` [Example 261, N-((4-(3-cyclopropyl-1,2,4-oxadiazol-5-yl)bicyclo[2.2.2]octan-1-yl)methyl)-3-fluoro-N-(3-(2-oxo-2,3-dihydrobenzo[d]oxazol-6-yl)phenyl)bicyclo[1.1.1]pentane-1-carboxamide] gave an EC50 under setting [1] of 0.048 µM.

`CS(=O)(=O)Nc1ccc(-c2cccc(N(CC34CCC(c5cnc(C(F)(F)F)nc5)(CC3)OC4)C(=O)C34CC(F)(C3)C4)c2)cc1` [Example 419, 3-fluoro-N-(4′-(methylsulfonamido)-[1,1′-biphenyl]-3-yl)-N-((1-(2-(trifluoromethyl)pyrimidin-5-yl)-2-oxabicyclo[2.2.2]octan-4-yl)methyl)bicyclo[1.1.1]pentane-1-carboxamide]: under setting [1], the EC50 was 0.523 µM. For `Cc1nc2ccc(-c3cccc(N(CC45CCC(c6noc(C7(C(F)(F)F)CC7)n6)(CC4)CC5)C(=O)C45CC(F)(C4)C5)c3)cc2s1` [Example 524, 3-fluoro-N-(3-(2-methylbenzo[d]thiazol-6-yl)phenyl)-N-((4-(5-(1-(trifluoromethyl)cyclopropyl)-1,2,4-oxadiazol-3-yl)bicyclo[2.2.2]octan-1-yl)methyl)bicyclo[1.1.1]pentane-1-carboxamide], the response was half-maximal at 0.119 µM (EC50).
